Experiments:
[1] = biological target: purified human autoBACE-2 (Homo sapiens (Human), UniProt Q9Y5Z0); experiment: BACE-2 Assay (BACE-HTRF assay); assay type: biochemical; details: Ki calculated from IC50 using the Cheng-Prusoff equation; QSY7-EISEVNLDAEFC-Eu-amide substrate, pH 5.0; read-out: BACE2 Ki
Method: Inhibitor IC50s at purified human autoBACE-2 are determined in a time-resolved endpoint proteolysis assay that measures hydrolysis of the QSY7-[…]-Eu-amide FRET peptide substrate (BACE-HTRF assay). […] DMSO is present at 5% final concentration in the assay. Following laser excitation of sample wells at 320 nm, the fluorescence signal at 620 nm is collected for 400 ms following a 50 μs delay on a RUBYstar HTRF plate reader (BMG Labtechnologies). Raw RFU data is normalized to maximum (1.0 nM BACE/DMSO) and minimum (no enzyme/DMSO) RFU values. […] The Ki values are calculated from the IC50 using the Cheng-Prusoff equation.

[2] = biological target: soluble human BACE1 catalytic domain (Homo sapiens (Human), UniProt P56817); experiment: BACE1 HTRF FRET Assay; assay type: biochemical; details: Ki calculated from IC50 using the Cheng-Prusoff equation; QSY7-APPswe-Eu substrate, pH 5.0
Source text: Na^+-Acetate pH 5.0; 1% Brij-35; Glycerol; Dimethyl Sulfoxide (DMSO); Recombinant human soluble BACE1 catalytic domain (>95% pure); APP Swedish mutant peptide substrate (QSY7-APP^swe-Eu): QSY7-EISEVNLDAEFC-Europium-amide.
A homogeneous time-resolved FRET assay can be used to determine IC50 values for inhibitors of the soluble human BACE1 catalytic domain. This assay monitors the increase of 620 nm fluorescence that resulted from BACE1 cleavage of an APPswedish APP^swe mutant peptide FRET substrate (QSY7-EISEVNLDAEFC-Europium-amide). This substrate contains an N-terminal QSY7 moiety that serves as a quencher of the C-terminal Europium fluorophore (620 nm Em). In the absence of enzyme activity, 620 nm fluorescence is low in the assay and increased linearly over 3 hours in the presence of uninhibited BACE1 enzyme Inhibition of BACE1 cleavage of the QSY7-APP^swe-Eu substrate by inhibitors is manifested as a suppression of 620 nm fluorescence.
Varying concentrations of inhibitors at 3× the final desired concentration in a volume of 10 ul are preincubated with purified human BACE1 catalytic domain (3 nM in 10 μl) for 30 minutes at 30° C. in reaction buffer containing 20 mM Na-Acetate pH 5.0, 10% glycerol, 0.1% Brij-35 and 7.5% DSMO. Reactions are initiated by addition of 10 μl of 600 nM QSY7-APP^swe-Eu substrate (200 nM final) to give a final reaction volume of 30 μl in a 384 well Nunc HTRF plate. The reactions are incubated at 30° C. for 1.5 hours. The 620 nm fluorescence is then read on a Rubystar HTRF plate reader (BMG Labtechnologies) using a 50 millisecond delay followed by a 400 millisecond acquisition time window Inhibitor IC50 values are derived from non-linear regression analysis of concentration response curves. Ki values are then calculated from IC50 values using the Cheng-Prusoff equation using a previously determined […] of 8 μM for the QSY7-APP^swe-Eu substrate at BACE1.

purified human autoBACE-2, sequence (Q9Y5Z0 63-473): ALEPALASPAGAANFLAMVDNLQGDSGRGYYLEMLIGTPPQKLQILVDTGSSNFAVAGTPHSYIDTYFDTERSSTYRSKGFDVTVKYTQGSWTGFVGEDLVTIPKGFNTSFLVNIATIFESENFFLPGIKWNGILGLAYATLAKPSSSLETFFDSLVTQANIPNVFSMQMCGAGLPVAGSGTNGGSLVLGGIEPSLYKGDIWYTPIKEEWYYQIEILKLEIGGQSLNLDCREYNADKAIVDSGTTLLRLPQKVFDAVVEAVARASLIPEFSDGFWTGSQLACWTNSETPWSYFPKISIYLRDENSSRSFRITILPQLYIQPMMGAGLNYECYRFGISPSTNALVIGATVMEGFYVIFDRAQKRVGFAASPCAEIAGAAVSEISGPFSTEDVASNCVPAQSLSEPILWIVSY
soluble human BACE1 catalytic domain, sequence (P56817 75-416): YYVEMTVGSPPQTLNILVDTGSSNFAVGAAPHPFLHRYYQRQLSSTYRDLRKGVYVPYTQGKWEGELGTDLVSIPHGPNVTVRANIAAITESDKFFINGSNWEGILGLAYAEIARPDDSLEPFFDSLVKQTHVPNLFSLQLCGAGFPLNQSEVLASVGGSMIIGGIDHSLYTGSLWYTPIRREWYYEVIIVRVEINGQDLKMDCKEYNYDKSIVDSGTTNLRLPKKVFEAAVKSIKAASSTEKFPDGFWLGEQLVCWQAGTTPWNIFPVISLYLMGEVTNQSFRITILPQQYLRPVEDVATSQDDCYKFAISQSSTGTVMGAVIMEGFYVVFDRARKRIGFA

Structure (SMILES) | Ki [1] [nM] | Ki [2] [nM]
CN1C(=N)N[C@@]2(CCCc3ccc(NC(=O)c4cnc(C(F)(F)F)cn4)cc32)CS1(=O)=O [Example 5s] | 685 | 253
CN1C(=N)N[C@@]2(CCCc3ccc(NC(=O)c4cnsn4)cc32)CS1(=O)=O [Example 5t] | 56 | 264
CN1C(=N)N[C@@]2(CCCc3ccc(NC(=O)c4cc5ccccn5n4)cc32)CS1(=O)=O [Example 5u] | 385 | 1340
CN1C(=N)N[C@@]2(CCCc3ccc(NC(=O)c4ccc(C(F)(F)F)cn4)cc32)CS1(=O)=O [Example 5v] | 171 | 55
CN1C(=N)N[C@@]2(CCCc3ccc(NC(=O)c4ccn(C(F)F)n4)cc32)CS1(=O)=O [Example 5w] | 3 | 20

— US9580396B2, “C6-spiro iminothiadiazine dioxides as BACE inhibitors, compositions, and their use” (Merck Sharp & Dohme Corp., priority 2012, dated 2017)
